≈ marks a conversion by molar mass, not a printed value.
Columns and labels:
COX2 promoter = test: COX-2 promoter-dependent reporter luciferase gene expression; format: cell-based, human; conditions: 0.1 nM TNF 24 h
Method: H1299 cells were transiently transfected with a COX-2 promoter plasmid linked to the luciferase gene and then treated with the indicated concentrations of honokiol. After 24 h in culture with 0.1 nM TNF, cell supernatants were collected and assayed for luciferase activity. Results are expressed as fold activity over the activity of the vector control. Values are means ±SD (indicated as error bars) of triplicate cultures for a representative experiment out of 3 independent ones showing similar results.
COX-2 promoter-dependent reporter luciferase gene expression. COX-2 promoter activity was examined as described elsewhere (Shishodia, S., et al. 2003 Cancer Res. 63:4375-4383). To further determine the effect of honokiol on COX-2 promoter, A293 cells were seeded at a concentration of 1.5×10^5 cells per well in six-well plates. […] The COX-2 promoter (−375 to +59), which was amplified from human genomic DNA by using the primers 5′-[sequence]-3′ (sense) and 5′-[sequence]-3′ (antisense). After a 6-h exposure to the transfection mixture, the cells were incubated in medium containing honokiol for 12 h. The cells were exposed to TNF (0.1 nM) for 24 h and then harvested. Luciferase activity was measured by using the Luclite luciferase assay system (Perkin-Elmer, Boston, Mass.) according to the manufacturer's protocol and detected by luminometer (Victor 3, Perkin-Elmer).

SVR cells = test: apoptosis of SVR cells; format: cell-based; conditions: 18 and 48 h
Method: FIG. 13 illustrates the effect of honokiol and magnolol on apoptosis. The light columns represent SVR cells treated with magnolol, and the dark columns represent SVR cells treated with honokiol. The control lanes represent cells immediately after treatment compared with 18 and 48 h of treatment.

MCF-7 cells = test: Apoptosis analysis (annexin V and PI); format: cell-based; conditions: MCF-7, 60 μM, 24 hours (control 1%±0.5%)
Method: Apoptosis analysis: 5×10^6 cells were placed in the appropriate culture media containing 10% FCS, and treated with either control vehicle or various concentrations of HNK, as indicated for 24 h. Following treatment, cells were harvested, and stained with PI and Annexin V, using the Annexin V-PE Apoptosis Detection Kit I (BD Pharmingen, San Diego, Calif.) according to the manufacturer protocol. Flow cytometry was performed at the Flow Cytometry Core facility of Cedars-Sinai Medical Center, using FACScan (Becton Dickinson, Franklin Lakes, N.J.). For studies using z-VAD-fmk to inhibit caspase activity, 5×10^6 cells were incubated with 50 μM z-VAD-fmk for 60 minutes prior to addition of HNK.
HNK induces apoptosis in breast cancer cell lines. […] The ability of HNK to induce apoptosis and cell death in breast cancer cell lines was investigated. MCF-7 cells were treated with HNK (60 μM for six or 24 hours) and apoptosis and cell death were assessed using annexin V and PI staining (FIG. 5 A). […] Upregulation of BAX was also noticed, (85% increase at 40 μM compared to control, as analyzed by densitometry) but no significant changes in BCL-2 or BAD levels were observed. Only partial inhibition of apoptosis was observed following pretreatment with z-VAD-fmk.

KBM-5 cells = test: Annexin V assay; format: cell-based, human; conditions: KBM-5, honokiol 12 h then 1 nM TNF 16 h
Excerpt: (D) depicts that honokiol enhances TNF-induced cell death.
Annexin V assay. One of the early indicators of apoptosis is the rapid translocation and accumulation of the membrane phospholipid phosphatidylserine from the cell's cytoplasmic interface to the extracellular surface. This loss of membrane asymmetry can be detected using the binding properties of annexin V. Annexin V antibody conjugated with the fluorescent dye FITC was used to detect apoptosis. Briefly, 1×10^6 cells were pretreated with […] honokiol for 12 h, treated with 1 nM TNF for 16 h, and then subjected to annexin V staining. Cells were washed, stained with FITC-conjugated anti-annexin V antibody, and then analyzed with a flow cytometer (FACSCalibur; BD Biosciences).
By using caspase-activated PARP cleavage, it was shown that the enhanced cytotoxicity was due to apoptosis. TNF-induced PARP cleavage was enhanced in the honokiol-treated cells (FIG. 26C).

normal PBMNCs = test: cells; format: cell-based; conditions: Homo sapiens
Excerpt: Cells: Dexamethasone (Dex)-sensitive MM.1S (wild-type p53) and Dex-resistant MM.1R, RPMI 8226-Dox40 (doxorubicin resistant) and RPMI 8226-LR5 (melphalan resistant) human multiple myeloma (MM) cell lines were used. RPMI-8226 and U266 cells were obtained from the American Type Culture Collection (Rockville, Md.). SU-DHL-4 cells were also utilized. Fresh peripheral blood mononuclear cells (PBMNCs) were obtained from healthy subjects after informed consent. The PBMNC were separated from heparinized peripheral blood by Ficoll-Hipaque density sedimentation. BM specimens were acquired from patients with MM after obtaining informed consent and mononuclear cells were separated by Ficoll-Hipaque density sedimentation. […]
Reagents: Honokiol (HNK; Calbiochem, San Diego, Calif.) was dissolved in ethanol at 20 mg/ml stock solution. […] Absorbance readings at a wavelength of 450 nm were taken on a spectrophotometer (Molecular Devices Corp., Sunnyvale, Calif.).
HNK inhibits growth of MM cell lines. To identify the therapeutic potential of HNK, MM cell lines and normal PBMNCs were cultured at indicated concentration with HNK for 48 h, and growth was determined by calorimetric assays. […] FIGS. 6A and B show growth inhibition in MM cell lines by HNK as assessed by calorimetric assay after 48 h-culture. […]

Compound: C=CCc1ccc(O)c(-c2ccc(O)c(CC=C)c2)c1 [HNK, Honokiol]
- TNF-induced COX2 promoter activity (COX2 promoter): inhibited the TNF-induced COX2 promoter activity in a dose-dependent manner
- induction of apoptosis compared with magnolol (SVR cells): more effective in the induction of apoptosis than magnolol
- annexin V-positive, PI-negative cells (MCF-7 cells): 16%±3%
- TNF-induced early apoptosis (annexin V staining) (KBM-5 cells): quite effective in enhancing the effects of TNF
- IC50 (normal PBMNCs): 40 to 80 µg/mL (≈ 150 to 300 µM)

From patent publication US20080300298A1, “Honokiol Derivates For the Treatment of Proliferative Disorders” (priority 2005, published 2008)
